Six molecules from ChEMBL document CHEMBL4831486, “Design, synthesis and biological evaluation of pleuromutilin-Schiff base hybrids as potent anti-MRSA agents in vitro and in vivo” (Eur J Med Chem, 2021) can be followed below.

In brackets after ≈: the same amount, converted by molar mass. A value given as a limit tells only on which side of the number the result lay.

Series [1] has as its system Staphylococcus aureus. As to the kind of experiment: Antibacterial activity against Methycillin-resistant Staphylococcus aureus ATCC 43300 assessed as inhibition of bacterial growth measured after 24 hrs by broth dilution method. It is filed as functional. (Dilution methods test growth across graded concentrations, often in twofold steps.)
Series [2] deals with Staphylococcus aureus. As to the kind of experiment: Antibacterial activity against Staphylococcus aureus AD3 assessed as inhibition of bacterial growth measured after 24 hrs by broth dilution method. Format: functional.
Series [3] concerns Escherichia coli. As to the kind of experiment: Bactericidal activity against Escherichia coli ATCC 25922 assessed as inhibition of bacterial growth measured after 96 hrs by broth dilution method. Format: functional.
Series [4] concerns Staphylococcus aureus. Description: Antibacterial activity against Staphylococcus aureus ATCC 29213 assessed as inhibition of bacterial growth measured after 24 hrs by broth dilution method. It is filed as functional.
Series [5] relates to Staphylococcus aureus. Description: Bactericidal activity against Staphylococcus aureus AD3 assessed as inhibition of bacterial growth measured after 96 hrs by broth dilution method. Format: functional.
The subject of series [6] is Escherichia coli. As to the kind of experiment: Antibacterial activity against Escherichia coli ATCC 25922 assessed as inhibition of bacterial growth measured after 24 hrs by broth dilution method. Format: functional.
In another series the test system is RAW264.7. Description: Cytotoxicity against mouse RAW264.7 cells assessed as reduced cell viability at 4 ug/ml measured after 16 hrs by MTT assay. It is filed as cell-based. Conditions: raw264.7, 16 h, dose 4 µg/ml. On the technique in general: Formazan colour is commonly taken as a measure of viable cells.
Series [7] relates to Staphylococcus aureus. Description: Bactericidal activity against Methycillin-resistant Staphylococcus aureus ATCC 43300 assessed as inhibition of bacterial growth measured after 96 hrs by broth dilution method. It is filed as functional.
Series [8] has as its system Staphylococcus aureus. Description: Bactericidal activity against Staphylococcus aureus 144 assessed as inhibition of bacterial growth measured after 96 hrs by broth dilution method. It is filed as functional.
For series [9], the system named is Staphylococcus aureus. As to the kind of experiment: Bactericidal activity against Staphylococcus aureus ATCC 29213 assessed as inhibition of bacterial growth measured after 96 hrs by broth dilution method. It is filed as functional.
The test system of the next series is HepG2. Description: Cytotoxicity against human HepG2 cells assessed as reduced cell viability at 4 ug/ml measured after 16 hrs by MTT assay. Particulars: hepg2, 16 h, dose 4 µg/ml. Format: cell-based.
Series [10] has as its system Staphylococcus aureus. As to the kind of experiment: Antibacterial activity against Staphylococcus aureus 144 assessed as inhibition of bacterial growth measured after 24 hrs by broth dilution method. Format: functional.

In the case of `C=C[C@]1(C)C[C@@H](OC(=O)CSc2nnc(C)n2/N=C/c2ccc(N3CCOCC3)cc2)[C@]2(C)[C@H](C)CC[C@]3(CCC(=O)[C@H]32)[C@@H](C)[C@@H]1O`, the minimum inhibitory concentration (MIC) was 0.5 µg/mL (≈ 0.753 µM) in the series on Staphylococcus aureus [1]; 1 µg/mL (≈ 1.51 µM) in the series with Staphylococcus aureus [2]; 1 µg/mL (≈ 1.51 µM) in the series on Staphylococcus aureus [4]; over 64 µg/mL in the series on Escherichia coli [6]; 2 µg/mL (≈ 3.01 µM) in the series with Staphylococcus aureus [10]. The MBC in the series on Escherichia coli [3] was over 64 µg/mL; in the series on Staphylococcus aureus [5], 4 µg/mL (≈ 6.03 µM); with Staphylococcus aureus [7], 1 µg/mL (≈ 1.51 µM); in the series on Staphylococcus aureus [8] it was 4 µg/mL (≈ 6.03 µM); with Staphylococcus aureus [9] it was 2 µg/mL (≈ 3.01 µM). Besides, the Activity entry in the series with RAW264.7 and with HepG2 was “Non-Toxic” in each case.
As for `C=C[C@]1(C)C[C@@H](OC(=O)CSc2nnc(C)n2/N=C/c2ccc(C#N)cc2)[C@]2(C)[C@H](C)CC[C@]3(CCC(=O)[C@H]32)[C@@H](C)[C@@H]1O`, the MIC in the series on Staphylococcus aureus [1] was 1 µg/mL (≈ 1.66 µM); in the series with Staphylococcus aureus [2], 2 µg/mL (≈ 3.31 µM); in the series on Staphylococcus aureus [4] it was 1 µg/mL (≈ 1.66 µM); with Escherichia coli [6], over 64 µg/mL; in the series with Staphylococcus aureus [10] it was 2 µg/mL (≈ 3.31 µM). For the same molecule, the MBC in the series on Escherichia coli [3] was over 64 µg/mL; in the series on Staphylococcus aureus [5] it was 4 µg/mL (≈ 6.62 µM); in the series on Staphylococcus aureus [7] it was 4 µg/mL (≈ 6.62 µM); in the series with Staphylococcus aureus [8] it was 4 µg/mL (≈ 6.62 µM); with Staphylococcus aureus [9] it was 4 µg/mL (≈ 6.62 µM). Also, the Activity result in the series on RAW264.7 and with HepG2 was “Non-Toxic” in each case.
Consider `C=C[C@]1(C)C[C@@H](OC(=O)CSc2nnc(C)n2/N=C/c2cccc(F)c2)[C@]2(C)[C@H](C)CC[C@]3(CCC(=O)[C@H]32)[C@@H](C)[C@@H]1O`, for which the MIC in the series on Staphylococcus aureus [1] was 0.5 µg/mL (≈ 0.838 µM); with Staphylococcus aureus [2] it was 1 µg/mL (≈ 1.68 µM); in the series with Staphylococcus aureus [4], 1 µg/mL (≈ 1.68 µM); in the series with Escherichia coli [6], over 64 µg/mL; in the series on Staphylococcus aureus [10], 2 µg/mL (≈ 3.35 µM). Moreover, the MBC is over 64 µg/mL with Escherichia coli [3]; 4 µg/mL (≈ 6.7 µM) in the series on Staphylococcus aureus [5]; 1 µg/mL (≈ 1.68 µM) in the series with Staphylococcus aureus [7]; 4 µg/mL (≈ 6.7 µM) in the series with Staphylococcus aureus [8]; 4 µg/mL (≈ 6.7 µM) with Staphylococcus aureus [9]. Also, the Activity entry in the series on RAW264.7 and in the series with HepG2 was “Non-Toxic” throughout.
As for `C=C[C@]1(C)C[C@@H](OC(=O)CSc2nnc(C)n2/N=C/c2ccc(N3CCCC3)cc2)[C@]2(C)[C@H](C)CC[C@]3(CCC(=O)[C@H]32)[C@@H](C)[C@@H]1O`, the MIC with Staphylococcus aureus [1] was 1 µg/mL (≈ 1.54 µM); in the series on Staphylococcus aureus [2], 2 µg/mL (≈ 3.09 µM); in the series on Staphylococcus aureus [4] it was 2 µg/mL (≈ 3.09 µM); with Escherichia coli [6], over 64 µg/mL; with Staphylococcus aureus [10], 2 µg/mL (≈ 3.09 µM). For the same molecule, the MBC was over 64 µg/mL in the series with Escherichia coli [3]; 4 µg/mL (≈ 6.17 µM) with Staphylococcus aureus [5]; 2 µg/mL (≈ 3.09 µM) with Staphylococcus aureus [7]; 4 µg/mL (≈ 6.17 µM) in the series on Staphylococcus aureus [8]; 4 µg/mL (≈ 6.17 µM) with Staphylococcus aureus [9]. In addition, the Activity entry in the series with RAW264.7 and with HepG2 was “Non-Toxic” in each case.
With `C=C[C@]1(C)C[C@@H](OC(=O)CSc2nnc(C)n2/N=C/c2ccccc2O)[C@]2(C)[C@H](C)CC[C@]3(CCC(=O)[C@H]32)[C@@H](C)[C@@H]1O`, the MIC in the series on Staphylococcus aureus [1] is 0.5 µg/mL (≈ 0.841 µM); with Staphylococcus aureus [2] it was 1 µg/mL (≈ 1.68 µM); in the series on Staphylococcus aureus [4], 1 µg/mL (≈ 1.68 µM); in the series with Escherichia coli [6], over 64 µg/mL; in the series with Staphylococcus aureus [10], 2 µg/mL (≈ 3.36 µM). In addition, the MBC in the series on Escherichia coli [3] was over 64 µg/mL; with Staphylococcus aureus [5], 4 µg/mL (≈ 6.73 µM); in the series on Staphylococcus aureus [7], 1 µg/mL (≈ 1.68 µM); in the series on Staphylococcus aureus [8], 4 µg/mL (≈ 6.73 µM); in the series on Staphylococcus aureus [9], 2 µg/mL (≈ 3.36 µM). In addition, the Activity entry in the series on RAW264.7 and in the series with HepG2 was “Non-Toxic” throughout.
For `C=C[C@]1(C)C[C@@H](OC(=O)CSc2nnc(C)n2/N=C/c2ccc(C(F)(F)F)cc2)[C@]2(C)[C@H](C)CC[C@]3(CCC(=O)[C@H]32)[C@@H](C)[C@@H]1O`, the MIC was 2 µg/mL (≈ 3.09 µM) in the series with Staphylococcus aureus [1]; 2 µg/mL (≈ 3.09 µM) in the series with Staphylococcus aureus [2]; 2 µg/mL (≈ 3.09 µM) in the series on Staphylococcus aureus [4]; over 64 µg/mL in the series on Escherichia coli [6]; 4 µg/mL (≈ 6.18 µM) in the series on Staphylococcus aureus [10]. Further, the MBC is over 64 µg/mL in the series on Escherichia coli [3]; 8 µg/mL (≈ 12.4 µM) in the series with Staphylococcus aureus [5]; 4 µg/mL (≈ 6.18 µM) with Staphylococcus aureus [7]; 8 µg/mL (≈ 12.4 µM) with Staphylococcus aureus [8]; 4 µg/mL (≈ 6.18 µM) in the series on Staphylococcus aureus [9]. Moreover, the Activity result with RAW264.7 and with HepG2 was “Non-Toxic” each time.

What is called MIC is the lowest concentration found to suppress growth. Usually MBC stands for the lowest tested concentration that kills the bacteria rather than only halting them.
